From patent US9670514B2, “Method for producing polysaccharide” (SANYO CHEMICAL INDUSTRIES, LTD., priority 2011, dated 2017)

Key:
cellulose synthase = target: T1, cellulose synthase (Novacetimonas hansenii, UniProt Q59167); test: Inhibitory concentration IC50 against cellulose synthase; format: biochemical, acetic acid bacteria; conditions: cellulose synthase (B-3) 1.5 U/mL
T1 construct: FLAG; made in house; host or cells: Escherichia coli SURE, as in Preparation 1
Method: Hyaluronan synthase aqueous solution (B-1) obtained in Preparation 1 was dissolved to a concentration of 1.5 U/mL in 940 μL of aqueous solution 1 (50 mM phosphate buffer (pH of 7.5, 25° C.) containing 5 mM magnesium chloride and 0.05 mM sodium uridine diphosphate) in a 1.5 mL-tube. The tube was allowed to stand at 40° C. for 20 minutes in a constant temperature water bath. To the tube was added 50 μL of temperature-adjusted (40° C.) substrate solution [1-1] (a solution obtained by dissolving uridine diphosphate-glucuronic acid sodium salt and uridine diphosphate-N-acetylglucosamine both to a concentration of 20 mM in buffer solution B (50 mM phosphate buffer, pH of 7.5, 25° C.)). Thereby, enzyme reaction solution (I-1) was obtained. […] The supernatant (80 μL) was analyzed by HPLC under the following conditions, and the peak areas of hyaluronan were recorded. […]
The inhibitory concentration IC50 was measured in a similar manner as in “Measurement of the inhibitory concentration IC50 against hyaluronan synthase”, except that “cellulose synthase aqueous solution (B-3) obtained in Preparation 12” was used in place of “hyaluronan synthase aqueous solution (B-1) obtained in Preparation 1”, “substrate solution [1-3] […]
The inhibitory concentration IC50 was also determined in a similar manner, except that the amount of cellulose synthase aqueous solution (B-3) was changed from 1.5 U/mL to 45 U/mL. […]

[1] = test system: nucleoside diphosphate kinase; test: Michaelis constant Km of uridine triphosphate synthesis using; format: biochemical, rat; conditions: uridine diphosphate as substrate, adenosine triphosphate as phosphate donor, 30° C., Hanes-Woolf plot
Method: The Michaelis constant Km can be determined through determination of the dependence of the initial enzyme reaction velocity on the substrate concentration in accordance with the method reported by Agarwal et al. (described in Methods of Enzymology, 1978, Vol. 51, pp. 483-491). (D4-1) in a purified form is used for the measurement of the Michaelis constant Km. The inhibitory concentration IC50 is determined by the method described above. […]
(D4-1-2) obtained in Preparation 8 was dissolved in 890 μL of aqueous solution 7 (50 mM phosphate buffer (pH of 7.5, 25° C.) containing 5 mM magnesium chloride and 100 mM adenosine triphosphate (available from Sigma-Aldrich Corporation)) in a 1.5 mL-tube. […] The supernatant (80 μL) was analyzed by HPLC, and the peak areas of uridine triphosphate were recorded.
Solutions were prepared by changing the molar concentration of sodium uridine diphosphate in substrate solution [2-1] to 5 mM (substrate solution [2-2]), 2 mM (substrate solution [2-3]), 1 mM (substrate solution [2-4]), and 0.3 mM (substrate solution [2-5]). […] The peak areas of uridine triphosphate were recorded for enzyme reaction solutions (IV-2-2) to (IV-2-5) in a similar manner for enzyme reaction solution (IV-2-1). […]

T1 sequence (Q59167 whole entry): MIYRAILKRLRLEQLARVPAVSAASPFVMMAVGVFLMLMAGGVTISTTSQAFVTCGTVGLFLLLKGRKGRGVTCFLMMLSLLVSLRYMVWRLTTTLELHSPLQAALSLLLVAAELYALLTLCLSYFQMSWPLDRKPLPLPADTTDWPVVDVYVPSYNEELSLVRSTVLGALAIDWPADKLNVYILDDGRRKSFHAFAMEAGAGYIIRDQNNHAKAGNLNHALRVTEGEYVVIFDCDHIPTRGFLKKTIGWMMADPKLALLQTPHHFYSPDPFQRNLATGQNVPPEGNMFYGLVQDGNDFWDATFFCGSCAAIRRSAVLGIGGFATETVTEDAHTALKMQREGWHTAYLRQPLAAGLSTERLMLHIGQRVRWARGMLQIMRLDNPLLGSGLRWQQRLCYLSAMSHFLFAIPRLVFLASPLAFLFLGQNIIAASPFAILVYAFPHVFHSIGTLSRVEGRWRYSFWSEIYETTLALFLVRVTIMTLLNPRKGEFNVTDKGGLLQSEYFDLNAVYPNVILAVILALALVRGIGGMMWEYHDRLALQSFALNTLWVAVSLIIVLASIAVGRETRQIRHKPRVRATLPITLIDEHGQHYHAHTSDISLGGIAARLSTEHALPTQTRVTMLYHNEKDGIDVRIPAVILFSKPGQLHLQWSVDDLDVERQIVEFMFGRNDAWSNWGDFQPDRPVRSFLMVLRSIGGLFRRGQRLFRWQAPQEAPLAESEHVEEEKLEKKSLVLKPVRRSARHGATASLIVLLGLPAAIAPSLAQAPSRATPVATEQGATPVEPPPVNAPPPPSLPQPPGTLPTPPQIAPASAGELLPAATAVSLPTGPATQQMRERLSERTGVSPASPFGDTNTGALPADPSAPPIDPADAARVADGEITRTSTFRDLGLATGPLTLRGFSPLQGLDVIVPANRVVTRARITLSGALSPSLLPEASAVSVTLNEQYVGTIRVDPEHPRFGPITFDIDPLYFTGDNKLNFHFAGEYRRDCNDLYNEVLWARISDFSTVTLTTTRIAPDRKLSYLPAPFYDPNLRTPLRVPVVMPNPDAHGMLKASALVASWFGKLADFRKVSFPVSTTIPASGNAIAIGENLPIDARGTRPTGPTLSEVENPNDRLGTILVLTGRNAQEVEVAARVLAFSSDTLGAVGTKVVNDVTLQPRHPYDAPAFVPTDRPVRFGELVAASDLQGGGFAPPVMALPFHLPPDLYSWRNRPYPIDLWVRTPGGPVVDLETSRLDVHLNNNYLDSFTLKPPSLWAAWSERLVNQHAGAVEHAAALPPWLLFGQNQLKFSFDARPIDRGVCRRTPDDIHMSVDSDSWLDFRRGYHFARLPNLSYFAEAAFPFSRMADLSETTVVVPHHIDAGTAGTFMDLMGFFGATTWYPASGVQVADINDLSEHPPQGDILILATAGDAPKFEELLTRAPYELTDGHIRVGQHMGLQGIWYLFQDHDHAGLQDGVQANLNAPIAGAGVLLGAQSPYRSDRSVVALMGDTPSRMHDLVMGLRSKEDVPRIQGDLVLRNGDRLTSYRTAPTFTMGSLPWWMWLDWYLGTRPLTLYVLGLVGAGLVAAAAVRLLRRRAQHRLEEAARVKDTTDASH

O=c1ccn([C@@H]2O[C@H](COP(=O)(O)OP(=O)(O)O)[C@@H](O)[C@H]2O)c(=O)[nH]1 [uridine diphosphate]
IC50 (cellulose synthase): 100 µM | Km [1]: 250 µM
